Laboratory results from PubChem BioAssay (NCI).
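Five concentrations, 48 hours, 96-well plates. GI50 = concentration required for 50% inhibition of growth. TGI marks complete inhibition of growth.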

Legend:
Assay in all cases: DTP human tumour cell line panel, 48 h
SNB-75 CNS = test system: SNB-75 CNS
PC-3 prostate = test system: PC-3 prostate
OVCAR-8 ovarian = test system: OVCAR-8 ovarian
OVCAR-5 ovarian = test system: OVCAR-5 ovarian
K-562 leukemia = test system: K-562 leukemia
HOP-92 NSCLC = test system: HOP-92 NSCLC
HCT-15 colon = test system: HCT-15 colon
ACHN renal = test system: ACHN renal

Compound | GI50 (SNB-75 CNS) [µM] | GI50 (PC-3 prostate) [µM] | TGI (PC-3 prostate) [µM] | GI50 (OVCAR-8 ovarian) [µM] | TGI (OVCAR-8 ovarian) [µM] | GI50 (OVCAR-5 ovarian) [µM] | TGI (OVCAR-5 ovarian) [µM] | TGI (K-562 leukemia) [µM] | GI50 (HOP-92 NSCLC) [µM] | TGI (HOP-92 NSCLC) [µM] | GI50 (HCT-15 colon) [µM] | TGI (HCT-15 colon) [µM] | GI50 (ACHN renal) [µM] | TGI (ACHN renal) [µM] | TGI (SNB-75 CNS) [µM] | GI50 (K-562 leukemia) [µM]
COc1ccc(C(=O)Nc2ncc(Cc3cccc(Cl)c3)s2)cc1OC | 0.405 | 1.5 | > 100 | 1.56 | > 100 | 1.25 | > 100 | > 100 | 1.99 | > 100 | 0.0631 | > 100 | 0.0812 | > 100 |  | 
Nc1ccccc1NC(=O)c1ccc(CNc2nccc(-c3cccnc3)n2)cc1 | 1.43 | 0.928 | > 100 | 0.541 | > 100 | 0.55 | > 48 | > 100 | 0.206 | 2.7 | 2.06 | > 44.1 | 1.14 | > 27.8 | > 25.4 | 0.358
CCOC(=O)c1ccccc1OC(=O)NNc1ccccc1 | > 60.4 | 7.91 | > 100 | 9.19 | > 100 | 5.34 | > 100 | > 100 | 6.92 | > 100 | 0.862 | > 100 | 0.587 | > 100 | > 100 | 0.225
CC[C@H]1CN2CCc3cc(OC)c(OC)cc3C2C[C@@H]1CC1NCCc2cc(OC)c(OC)cc21 (stereo partly specified) |  |  | 0.275 |  | 0.18 |  | 0.645 | 0.0779 |  | 0.0464 |  | 2.02 |  | 1.42 |  | 0.0137
CCOC(=O)C1=C(C)N=c2s/c(=C\c3ccccc3O)c(=O)n2C1c1ccc(OC)c2ccccc12 (stereo unspecified) | 2.01 | 23.3 | > 100 | 5.35 | 22 | 17.1 | > 100 | 67.2 | 16.3 | 35.9 | 8.69 | > 100 | 3.03 | 8.87 | 6.11 | 11.4
COc1ccc(/C=C(/C(=O)N2CCN(c3ccccc3)CC2)c2cc(OC)c(OC)c(OC)c2)cc1N | 0.22 | 0.414 | > 100 | 0.375 | > 100 | 0.569 | > 100 | > 100 | 3.53 | > 100 | 0.388 | > 100 | 0.612 | > 100 | > 100 | 0.316
COC1=CC(c2ccc[nH]2)=N/C1=C\c1[nH]c(C)c(CC(=O)OCc2ccccc2)c1CCC(=O)OCc1ccccc1 | 0.275 | 0.346 | 12.6 | 0.32 | 1.36 | 1.26 | 6.12 |  | 0.231 | 0.809 | 0.313 | 1.18 | 0.333 | 1.02 | 1.53 | 
CCC(CC)c1nc(Nc2ccc(C(=O)OC)cc2)c2ccccc2n1 |  | 7.8 | 17.1 | 12.9 | > 31.4 | 17.9 | > 50 | > 31.6 | 18.6 | > 26.4 | 11 | > 33.1 | 8.1 | 18.1 |  | 7.39
NC1=CC(=O)c2cccnc2C1=O | 1.21 | 2.22 | 7.55 | 1.66 | 4.2 | 2.05 | 4.72 |  | 1.71 | 3.39 | 1.76 | 10.2 | 1.29 | 2.75 | 2.58 | 
COc1ccc2sc3cccc(NCCN(C)C)c3c(=O)c2c1 | 2.9 | 2.96 | 11.4 | 3.3 | 12.5 | 3.42 | 14.5 | 5.2 |  |  | 2.24 | 6.65 | 2.4 | 6.92 | 12.8 | 2.37
CCN(CC)CCNc1ccc(C)c2sc3cc(Cl)ccc3c(=O)c12 | 1.71 | 1.54 | 3.01 | 1.9 | 3.49 | 1.61 | 3.1 | 3.44 | 0.665 | 2.24 | 1.5 | 3.12 |  |  | 4.98 | 1.64
O=c1cc(-c2ccccc2)oc2ccc(OC/C(=N/O)c3ccccc3)cc12 | 2.76 | 2.46 | 16.1 | 3.82 | > 50 | 43.8 | > 50 | > 50 | 25.2 | > 50 | 2.19 | > 50 |  |  | > 50 | 2.53
NCCCNc1nc2ccccc2c2c(=O)c3cc(F)cc(F)c3sc12 | 1.36 | 1.67 | 3.24 | 2.1 | 5.14 | 1.6 | 3.03 |  | 1.65 | 12.6 | 1.6 | 3.14 | 1.65 | 3.06 | 2.7 | 
CCOC(=O)c1ccc2c(c1)Cc1cc([N+](=O)[O-])ccc1-2 |  |  | > 100 |  | > 100 |  | > 100 | > 100 |  | > 100 |  | > 100 |  | > 100 |  | 
O=C(COc1ccc(/C=C2\COc3ccccc3C2=O)cc1)Nc1nccs1 | 5.04 | 3.95 | 28.5 | 4.49 | 45.2 | 16.7 | 32.9 | 4.64 |  |  | 5.05 | 23.8 | 16.6 | 42.3 | 22 | 1.6
C[n+]1c(/C=C/c2c[nH]c3ccccc23)ccc2ccccc21 | 14.1 | 9.74 | 25.8 | 4.24 | 28.9 | 18 | 59.1 | 18.1 |  |  | 18 | 53.4 | 10.1 | 47.8 | 27.4 | 2.32
C=C1CC2CCCC12C=O (stereo unspecified) |  |  | > 10 |  | > 10 |  |  | > 10 |  | > 10 |  | > 10 |  | > 10 | > 10 | 
